Reference: patent US6872827B2, “Somatostatin analogue compounds” (Chembridge Research Laboratories, Inc., priority 2002, dated 2005)

Assays:
Somatostatin sst1 = biological target: T1, Somatostatin sst1 (Homo sapiens, UniProt P30872); experiment: Somatostatin sst1 radioligand binding assay; settings: for % inh / inhibition at 10 µM: Conc 10 μM; for Ki: Cheng-Prusoff from IC50
T1 construct: host or cells: CHO-K1
Description: (§1) Compounds of the present invention were assessed for their binding affinity to sst1, sst3, and sst4 receptors by biochemical and radioligand assay according to the following procedures. The assays were conducted by MDS Pharma Services—Taiwan Ltd., Pharmacology Laboratories, 158 Li-The Road, Peitou, Taipei, Taiwan 112, R.O.C.
The protocol for sstl assay was adapted from Liapakis, G., Fitzpatrick, D., Hoeger, C., Rivier, J., Vandlen, R. and Reisine, T. (1996) “Identification of ligand binding determinants in the somatostatin receptor subtypes 1 and 2.”J. Biol. Chem. 271(24): 20331-20339, 1996; and Patel, Y. C. and Srikant, C. B. (1994) “Subtype selectivity of peptide analogs for all five cloned human somatostatin receptors (hsstr 1-5).” Endocrinology 135 (6): 2814-2817, 1994. The protocol were and can be conducted according to the following conditions.
(§2) IC50 values were determined by a non-linear, least squares regression analysis using Data Analysis Toolbox™ (MDL Information Systems, San Leandro, Calif., USA). Where inhibition constants (Ki) are presented, the Ki values were calculated using the equation of Cheng and Prusoff (Cheng, Y., Prusoff, W. H., Biochem. Pharmacol. 22:3099-3108, 1973) using the observed IC50 of the tested compound, the concentration of the radioligand employed in the assay, and the historical values for the Kd of the ligand (obtained experimentally at MDS Pharma Services). Where presented, the Hill coefficient (nH), defining the slope of the competitive binding curve, was calculated using Data Analysis Toolbox™. […] Where IC50, Ki and/or nH data are presented without Standard Error of the Mean (SEM), data are insufficient to be quantitative, and the values presented (Ki, IC50, nH) should be interpreted accordingly.

Somatostatin sst4 = biological target: T2, Somatostatin sst4 (Homo sapiens, UniProt P31391); experiment: Somatostatin sst4 radioligand binding assay; settings: for % inh / inhibition at 10 µM: Conc 10 μM (Conc not given in some rows)
T2 construct: host or cells: CHO-K1
T2 sequence (P31391 whole entry): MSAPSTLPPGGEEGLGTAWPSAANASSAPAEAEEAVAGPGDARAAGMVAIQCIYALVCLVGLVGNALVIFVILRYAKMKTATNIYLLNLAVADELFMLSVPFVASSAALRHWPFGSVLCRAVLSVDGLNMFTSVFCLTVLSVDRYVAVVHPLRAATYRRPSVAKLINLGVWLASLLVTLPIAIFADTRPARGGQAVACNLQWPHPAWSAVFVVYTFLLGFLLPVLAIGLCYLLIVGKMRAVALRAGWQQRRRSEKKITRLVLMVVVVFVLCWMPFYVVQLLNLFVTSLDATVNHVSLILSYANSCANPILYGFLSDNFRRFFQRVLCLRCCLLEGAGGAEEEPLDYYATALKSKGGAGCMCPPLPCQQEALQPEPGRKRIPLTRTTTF
Description: as §1
The protocol for sst4 assay was adapted from Patel, Y. C. and Srikant, C. B. (1994) “Subtype selectivity of peptide analogs for all five cloned human somatostatin receptors (hsstr 1-5).” Endocrinology 135 (6): 2814-2817, 1994. The protocol were and can be conducted according to the following conditions.
as §2

Somatostatin sst 3 = biological target: T3, Somatostatin sst 3 (Homo sapiens, UniProt P32745); experiment: Somatostatin sst3 radioligand binding assay; settings: for % inh / inhibition at 10 µM: Conc 10 μM (Conc not given in some rows); for Ki: Cheng-Prusoff from IC50
T3 construct: host or cells: CHO-K1
T3 sequence (P32745 whole entry): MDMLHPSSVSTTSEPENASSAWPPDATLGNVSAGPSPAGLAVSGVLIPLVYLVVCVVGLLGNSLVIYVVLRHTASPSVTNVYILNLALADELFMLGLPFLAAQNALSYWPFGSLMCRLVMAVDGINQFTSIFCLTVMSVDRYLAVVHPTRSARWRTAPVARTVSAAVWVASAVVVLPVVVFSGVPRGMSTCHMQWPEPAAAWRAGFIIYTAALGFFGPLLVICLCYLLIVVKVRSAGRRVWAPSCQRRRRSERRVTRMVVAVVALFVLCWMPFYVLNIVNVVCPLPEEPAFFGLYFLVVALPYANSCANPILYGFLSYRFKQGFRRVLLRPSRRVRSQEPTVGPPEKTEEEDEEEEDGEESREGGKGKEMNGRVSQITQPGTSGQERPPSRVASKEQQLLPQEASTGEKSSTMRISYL
Description: as §1
The protocol for sst3 assay was adapted from Liapakis, G., Fitzpatrick, D., Hoeger, C., Rivier, J., Vandlen, R. and Reisine, T. (1996) “Identification of ligand binding determinants in the somatostatin receptor subtypes 1 and 2.”J. Biol. Chem. 271(24): 20331-20339, 1996; and Patel, Y. C. and Srikant, C. B. (1994) “Subtype selectivity of peptide analogs for all five cloned human somatostatin receptors (hsstr 1-5).” Endocrinology 135 (6): 2814-2817, 1994. The protocol were and can be conducted according to the following conditions.
as §2

Sst5 = biological target: T4, Sst5 (Cavia porcellus, UniProt H0W1F1); experiment: Sst5 (functional) assay, Vas def gp; settings: Table 4; Conc 30 μM; read-out: % Ag
T4 sequence (H0W1F1 1-365): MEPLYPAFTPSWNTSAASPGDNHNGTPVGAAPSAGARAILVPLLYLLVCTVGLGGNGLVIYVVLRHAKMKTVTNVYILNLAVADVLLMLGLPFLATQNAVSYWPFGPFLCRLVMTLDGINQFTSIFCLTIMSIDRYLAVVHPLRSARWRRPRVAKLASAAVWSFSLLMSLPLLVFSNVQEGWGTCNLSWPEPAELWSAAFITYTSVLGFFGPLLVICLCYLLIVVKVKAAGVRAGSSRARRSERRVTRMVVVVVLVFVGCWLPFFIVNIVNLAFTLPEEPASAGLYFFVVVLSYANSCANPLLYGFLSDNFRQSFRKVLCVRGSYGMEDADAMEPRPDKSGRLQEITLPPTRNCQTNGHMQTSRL

[1] = Hill coefficient of competitive binding curve

T1 sequence (P30872 whole entry): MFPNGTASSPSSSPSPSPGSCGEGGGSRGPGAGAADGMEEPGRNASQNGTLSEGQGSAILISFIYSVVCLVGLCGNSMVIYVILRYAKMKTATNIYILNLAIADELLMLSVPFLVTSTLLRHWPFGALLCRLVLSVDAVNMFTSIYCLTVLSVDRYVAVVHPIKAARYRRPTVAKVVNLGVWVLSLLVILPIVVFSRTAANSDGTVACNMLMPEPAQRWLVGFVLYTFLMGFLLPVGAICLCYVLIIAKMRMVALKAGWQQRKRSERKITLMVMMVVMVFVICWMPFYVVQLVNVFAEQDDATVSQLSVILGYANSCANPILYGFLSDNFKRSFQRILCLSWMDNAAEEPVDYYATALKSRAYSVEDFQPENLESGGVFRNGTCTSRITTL

7-(4-methoxy-phenoxy)-3,4-dihydro-2H-quinoline-1-(4-aminobutyl-1-yl-)-4-spiro-5′-1′-methy-3′-[2-(1H-indol-3-yl-ethyl]-imidazoline-2′4′-dione [G]
nH (Somatostatin sst1; Table 4, human): 0.67 | % inh (Somatostatin sst1; Table 4, human): 64% | nH (Somatostatin sst4; Table 4, human): 0.786 | % inh (Somatostatin sst4; Table 4, human): 68% | nH (Somatostatin sst 3; Table 4, human): 0.985 | % inh (Somatostatin sst 3; Table 4, human): 60%

7-Phenoxy-3′-4′-dihydro-2H-quinoline 1-(methylpiperidine-4-yl)-4-spiro-5′-1′-(1H-indole-3yl-methyl)-3′-methyl-imidazoline-2′-4′-dione
nH (Somatostatin sst1; Table 4, human): 1.16 | % inh (Somatostatin sst1; Table 4, human): 89% | nH (Somatostatin sst4; Table 4, human): 1.37 | % inh (Somatostatin sst4; Table 4, human): 89% | nH (Somatostatin sst 3; Table 4, human): 1.3 | % inh (Somatostatin sst 3; Table 4, human): 86%

CN1C(=O)N(Cc2c[nH]c3ccccc23)C2(CCN(C(=O)CCCN)c3cc(Oc4ccccc4)ccc32)C1=O (stereo not drawn) [C, 7-phenoxy-3,4-dihydro-2H-quinoline-1-(4-amino-butyl-1-one)-4-spiro-5′-1′-(1H-indol-3-ylmethyl)-3′-methyl-imidazoline-2′,4′-dione]
% inh (Somatostatin sst1; Table 4, human): 24% | % inh (Somatostatin sst4; Table 4, human): 32% | % inh (Somatostatin sst 3; Table 4, human): 25%

CN1C(=O)N(Cc2c[nH]c3ccccc23)C(=O)C12CCN(C(=O)CCCN)c1cc(Oc3ccccc3)ccc12 (stereo not drawn) [Compound A, 7-phenoxy-3,4-dihydro-2H-quinoline-1-(4-amino-butanonyl)-4-spiro-5′-1′-methyl-3′-(1H-indol-3-ylmethyl)-imidazolidine-2′,4′-dione]
activation at 30 µM (Sst5): 61% | IC50 (Somatostatin sst1): 6.39 µM | Ki (Somatostatin sst1): 6.07 µM | nH (Somatostatin sst1; [1]): 0.433 | nH (Somatostatin sst1; Table 4, human): 0.433 | inhibition at 10 µM (Somatostatin sst1; Table 4, human): 54% | IC50 (Somatostatin sst4): 6 µM | Ki (Somatostatin sst4; Cheng-Prusoff from IC50): 5.27 µM | nH (Somatostatin sst4; [1]): 0.504 | nH (Somatostatin sst4; Table 4, human): 0.504 | inhibition at 10 µM (Somatostatin sst4; Table 4, human): 50% | IC50 (Somatostatin sst 3): 6.59 µM | Ki (Somatostatin sst 3): 5.85 µM | nH (Somatostatin sst 3; [1]): 0.564 | nH (Somatostatin sst 3; Table 4, human): 0.564 | inhibition at 10 µM (Somatostatin sst 3; Table 4, human): 56%

CN1C(=O)N(Cc2c[nH]c3ccccc23)C2(CCN(CCCCN)c3cc(Oc4ccccc4)ccc32)C1=O (stereo not drawn) [Compound B, 7-phenoxy-3,4-dihydro-2H-quinoline-1-(4-butylamine)-4-spiro-5′-1′-(1H-indol-3-ylmethyl)-3′-methyl-imidazolidine-2′,4′-dione]
IC50 (Somatostatin sst1): 3.25 µM | Ki (Somatostatin sst1): 3.09 µM | nH (Somatostatin sst1; [1]): 0.62 | nH (Somatostatin sst1; Table 4, human): 0.62 | inhibition at 10 µM (Somatostatin sst1; Table 4, human): 57% | inhibition at 10 µM (Somatostatin sst4; Table 4, human): 39% | IC50 (Somatostatin sst 3): 5.84 µM | Ki (Somatostatin sst 3): 5.18 µM | nH (Somatostatin sst 3; [1]): 0.722 | nH (Somatostatin sst 3; Table 4, human): 0.722 | inhibition at 10 µM (Somatostatin sst 3; Table 4, human): 60%
